Source: patent US20110152093A1, “Herbicidal compositions comprising flufenacet” (Bayer CropScience AG, priority 2009, published 2011)

How the values were obtained:
Assay type in all cases: in vivo
LOLPE (Lolium perenne) [1] = assay: PE action under various irrigation conditions, test method 6; settings: PE application, g of AS/ha: (A) 90, (B) 1200, (C) 140, (A)+(B)+(C) 90 + 1200 + 140
Description: (§1) In the standard design of the test, seeds of various broad-leaved weed and weed grass biotypes (origins) were sown in a 8-13 cm diameter pot filled with natural soil of a standard field soil (loamy silt; non-sterile) and covered with a covering soil layer of about 1 cm. The pots were then cultivated in a greenhouse (12-16 h of light, temperature day 20-22° C., night 15-18° C.) until the time of application. The pots were treated on a laboratory track sprayer with spray liquors comprising the compositions according to the invention, mixtures of the prior art or components used individually. Application of the active compounds or active compound combinations formulated as WG, WP, EC or otherwise was carried out at the appropriate growth stages of the plants. The application rate for the spray application was 100-600 l of water/ha. After the treatment, the plants were returned to the greenhouses.
(§2) About 3 weeks after the application, the soil action or/and foliar action was assessed visually according to a scale of 0-100% in comparison to an untreated comparative group: 0%=no noticeable effect compared to the untreated comparative group; 100%=full effect compared to the untreated comparative group.
(§3) (notes: the term “seeds” also includes vegetative propagation forms such as, for example, rhizome pieces; abbreviations used: h light=hours of illumination, g of AS/ha=gram of active substance per hectare, l/ha=liter per hectare, S=sensitive, R=resistant) • 1. Pre-emergence action against weeds: seeds of various broad-leaved weed and weed grass biotypes (origins) were sown in a 8-13 cm diameter pot filled with natural soil of a standard field soil (loamy silt; non-sterile) and covered with a covering soil layer of about 1 cm. The pots were then cultivated in a greenhouse (12-16 h of light, temperature day 20-22° C., night 15-18° C.) until the time of application. The pots were treated at the BBCH stage 00-10 of the seeds/plants on a laboratory track sprayer with spray liquors comprising the compositions according to the invention, mixtures or components used individually, as WG, WP, EC or other formulations. The application rate for the spray application was 100-600 l of water/ha. After the treatment, the plants were returned to the greenhouses and, when required, treated with fertilizer and watered. • 2. Post-emergence action against weeds: seeds of various broad-leaved weed and weed grass biotypes (origins) were sown in a 8-13 cm diameter pot filled with natural soil of a standard field soil (loamy silt; non-sterile) and covered with a covering soil layer of about 1 cm. The pots were then cultivated in a greenhouse (12-16 h of light, temperature day 20-22° C., night 15-18° C.) until the time of application. The pots were treated at various BBCH stages between 11-25 of the seeds/plants, i.e. generally between two to three weeks after the start of the cultivation, on a laboratory track sprayer with spray liquors comprising the compositions according to the invention, mixtures or components used individually, as WG, WP, EC or other formulations. The application rate for the spray application was 100-600 l of water/ha. After the treatment, the plants were returned to the greenhouses and, when required, treated with fertilizer and watered. • 3. Selective pre-emergence action: seeds of various crop species (origins) were sown in a 8-13 cm diameter pot filled with natural soil of a standard field soil (loamy silt; non-sterile) and covered with a covering soil layer of about 1 cm. The pots were then cultivated in a greenhouse (12-16 h of light, temperature day 20-22° C., night 15-18° C.) until the time of application. The pots were treated at the BBCH stage 00-10 of the seeds/plants on a laboratory track sprayer with spray liquors comprising the compositions according to the invention, mixtures or components used individually, as WG, WP, EC or other formulations. The application rate for the spray application was 100-600 l of water/ha. […]

[2] = test system: MATCH (Matricaria chamomilla); assay: as above; settings: PE application
Description: as §1, §2, §3

[3] = test system: HORVS (Hordeum vulgare, summer barley); assay: Selective post-emergence action (crop compatibility), greenhouse trial, test method 4; settings: PO application; g of AS/ha: (A) 240, (B) 1200, (C) 140, (A)+(B)+(C) 240 + 1200 + 140
Description: as §1, §2
(notes: the term “seeds” also includes vegetative propagation forms such as, for example, rhizome pieces; abbreviations used: h light=hours of illumination, g of AS/ha=gram of active substance per hectare, l/ha=liter per hectare, S=sensitive, R=resistant) • 1. Pre-emergence action against weeds: seeds of various broad-leaved weed and weed grass biotypes (origins) were sown in a 8-13 cm diameter pot filled with natural soil of a standard field soil (loamy silt; non-sterile) and covered with a covering soil layer of about 1 cm. The pots were then cultivated in a greenhouse (12-16 h of light, temperature day 20-22° C., night 15-18° C.) until the time of application. […]

[4] = test system: ALOMY sensitive (Alopecurus myosuroides); assay: PE action on resistant weed biotypes, test method 8; settings: PE application; g of AS/ha: (A) 90, (B) 1200, (C) 140, (A)+(B)+(C) 90 + 1200 + 140, iodosulfuron 10
Description: as §1, §2, §3

[5] = test system: ALOMY resistant (Alopecurus myosuroides); assay: as above; settings: PE application; g of AS/ha: (A) 90, (B) 1200, (C) 140, (A)+(B)+(C) 90 + 1200 + 140, iodosulfuron 10
Description: as §1, §2, §3

[6] = test system: LOLSS resistant (Lolium species); assay: as above; settings: PE application; g of AS/ha: (A) 90, (B) 1200, (C) 140, (A)+(B)+(C) 90 + 1200 + 140, iodosulfuron 10
Description: as §1, §2, §3

[7] = test system: LOLSS sensitive (Lolium species); assay: as above; settings: PE application; g of AS/ha: (A) 90, (B) 1200, (C) 140, (A)+(B)+(C) 90 + 1200 + 140, iodosulfuron 10
Description: as §1, §2, §3

[8] = test system: HORVS (Hordeum vulgare, summer barley); assay: PE crop compatibility at different soil pH values, test method 10; settings: PE application, g of AS/ha: (A) 90, (B) 1200, (C) 140, (A)+(B)+(C) 90 + 1200 + 140
Description: as §1, §2

AVEFA (Avena fatua) [9] = assay: Pre-sowing application action against weeds (7 days prior to sowing), test method 5; settings: application 7 days prior to sowing; g of AS/ha: (A) 90, (B) 1200, (C) 140, (A)+(B)+(C) 90 + 1200 + 140
Description: as §1, §2
(§4) (notes: the term “seeds” also includes vegetative propagation forms such as, for example, rhizome pieces; abbreviations used: h light=hours of illumination, g of AS/ha=gram of active substance per hectare, l/ha=liter per hectare, S=sensitive, R=resistant) • 1. Pre-emergence action against weeds: seeds of various broad-leaved weed and weed grass biotypes (origins) were sown in a 8-13 cm diameter pot filled with natural soil of a standard field soil (loamy silt; non-sterile) and covered with a covering soil layer of about 1 cm. The pots were then cultivated in a greenhouse (12-16 h of light, temperature day 20-22° C., night 15-18° C.) until the time of application. The pots were treated at the BBCH stage 00-10 of the seeds/plants on a laboratory track sprayer with spray liquors comprising the compositions according to the invention, mixtures or components used individually, as WG, WP, EC or other formulations. The application rate for the spray application was 100-600 l of water/ha. After the treatment, the plants were returned to the greenhouses and, when required, treated with fertilizer and watered. • 2. Post-emergence action against weeds: seeds of various broad-leaved weed and weed grass biotypes (origins) were sown in a 8-13 cm diameter pot filled with natural soil of a standard field soil (loamy silt; non-sterile) and covered with a covering soil layer of about 1 cm. The pots were then cultivated in a greenhouse (12-16 h of light, temperature day 20-22° C., night 15-18° C.) until the time of application. […]

LOLPE (Lolium perenne) [10] = assay: as above; settings: application 7 days prior to sowing; g of AS/ha: (A) 90, (B) 1200, (C) 140, (A)+(B)+(C) 90 + 1200 + 140
Description: as §1, §2, §4

[11] = test system: HORVS (Hordeum vulgare, summer barley); assay: Selective pre-emergence action (crop compatibility), greenhouse trial, test method 3; settings: PE application; g of AS/ha: (A) 90, (B) 1200, (C) 140, (A)+(B)+(C) 90 + 1200 + 140
Description: as §1
as §2, with “group. […]” for “group.”

AVEFA (Avena fatua) [12] = assay: PE action at different soil pH values, test method 10; settings: PE application; soil pH 7.4; g of AS/ha: (A) 90, (B) 1200, (C) 140, (A)+(B)+(C) 90 + 1200 + 140
Description: as §1, §2

## CCC(CC)Nc1c([N+](=O)[O-])cc(C)c(C)c1[N+](=O)[O-] [(B) pendimethalin, N-(1-ethylpropyl)-3,4-dimethyl-2,6-dinitrobenzenamine]
LOLPE (Lolium perenne) [1]; irrigation from above
  activity LOLPE: 75%
LOLPE (Lolium perenne) [1]; irrigation from below
  activity LOLPE: 10%
[2]; irrigation from above, g of AS/ha: (A) 90, (B) 1200, (C) 140, (A)+(B)+(C) 90 + 1200 + 90
  activity MATCH: 30%
[2]; irrigation from below, g of AS/ha: (A) 90, (B) 1200, (C) 140, (A)+(B)+(C) 90 + 1200 + 140
  activity MATCH: 18%
[3]
  activity HORVS (crop plant; visual, scale 0-100%): 10%
[4]
  activity ALOMY sensitive: 30%
[5]
  activity ALOMY resistant: 40%
[6]
  activity LOLSS resistant: 0%
[7]
  activity LOLSS sensitive: 78%
[8]; soil pH 7.4
  activity HORVS pH 7.4 (crop plant): 0%
[8]; soil pH 8.4
  activity HORVS pH 8.4 (crop plant): 15%
AVEFA (Avena fatua) [9]
  activity AVEFA: 70%
LOLPE (Lolium perenne) [10]
  activity LOLPE: 0%
[11]
  activity HORVS (crop plant): 50%
AVEFA (Avena fatua) [12]
  activity AVEFA pH 7.4: 10%
